For test [1], the target named is PI3K-δ (PI3K(p1108/p857) (h)) (Homo sapiens, UniProt O00329). Kind of test: Evaluation of inhibitory activity against PI3K-δ (HTRF kinase assay). Format: biochemical. The conditions noted are these: for inhibition at 0.01 µM: compound concentration 0.01 μM, read-out: EXP_VALUE(% Inhibition) PI3K-δ 0.01 μM; for inhibition at 0.1 µM: read-out: EXP_VALUE(% Inhibition) PI3K-δ 0.1 μM. As to the method: <Experimental Example 1> Evaluation of Inhibitory Activity Properties Against PI3K-δ
The following experiments were performed to verify the inhibitory activity against PI3K-δ with regard to each of the compounds of Examples 1 to 441 according to the present invention.
PI3K(p1108/p857) (h) was incubated in assay buffer comprising 10 μM phosphatidylinositol-4,5-bisphosphate and Mg/ATP (at a concentration as required). The reaction was initiated by the addition of a Mg/ATP mixture, and after incubation for 30 minutes at room temperature, a stop solution comprising EDTA and phosphatidylinositol-3,4,5-triphosphate was added to stop the reaction and carry out biotinylation.
A detection buffer comprising Eu (europium)-labelled anti-GST monoclonal antibody, GST-tagged GRP1 PH domain and streptavidin-allophycocyanin was added. A plate was read in a time-resolved fluorescence mode and a homogeneous time-resolved fluorescence (HTRF) signal was determined according to HTRF=10000×(Em 665 nm/Em 620 nm).
On the technique in general: In TR-FRET formats the signal depends on donor and acceptor labels being close together.

In the next test the target is DNA-PK(h) (Homo sapiens, UniProt P78527). Kind of test: Evaluation of inhibitory activity against DNA-PK (HTRF kinase assay, GST-cMyc-p53 substrate). Particulars: for inhibition at 0.01 µM: compound concentration 0.01 μM, read-out: EXP_VALUE(% Inhibition) DNA-PK(h) 0.01 μM; for inhibition at 0.1 µM: read-out: EXP_VALUE(% Inhibition) DNA-PK(h) 0.1 μM. Format: biochemical. As to the method:
<Experimental Example 2> Evaluation of Inhibitory Activity Properties Against DNA-PK
The following experiments were performed to verify the inhibitory activity against DNA-PK with regard to each of the compounds of Examples 1 to 441 according to the present invention.
DNA-PK(h) was subjected to an isothermal treatment in an assay buffer comprising […] GST-cMyc-p53 and Mg/ATP (at a concentration as required). The reaction was initiated by the addition of a Mg/ATP mixture, and after incubation for 30 minutes at room temperature, a stop solution comprising EDTA was added to stop the reaction. A detection buffer comprising d2-labelled anti-GST monoclonal antibody and Europium-labelled anti-phospho Ser15 antibody for phosphorylated p53 was added. A plate was read in a time-resolved fluorescence mode and a homogeneous time-resolved fluorescence (HTRF) signal was determined according to HTRF=10000×(Em 665 nm/Em 620 nm).

The source of these data is patent US20230072683A1, “PYRIDO-PYRIMIDIN DERIVATIVES AND PHARMACEUTICAL COMPOSITION, FOR USE IN PREVENTING OR TREATING PI3 KINASE RELATED DISEASES, COMPRISING SAME AS ACTIVE INGREDIENT” (BORYUNG PHARMACEUTICAL CO., LTD, priority 2019, published 2023).

Where two headings read alike, the source gives them in different places.

Sequence of PI3K-δ (PI3K(p1108/p857) (h)) (O00329 whole entry): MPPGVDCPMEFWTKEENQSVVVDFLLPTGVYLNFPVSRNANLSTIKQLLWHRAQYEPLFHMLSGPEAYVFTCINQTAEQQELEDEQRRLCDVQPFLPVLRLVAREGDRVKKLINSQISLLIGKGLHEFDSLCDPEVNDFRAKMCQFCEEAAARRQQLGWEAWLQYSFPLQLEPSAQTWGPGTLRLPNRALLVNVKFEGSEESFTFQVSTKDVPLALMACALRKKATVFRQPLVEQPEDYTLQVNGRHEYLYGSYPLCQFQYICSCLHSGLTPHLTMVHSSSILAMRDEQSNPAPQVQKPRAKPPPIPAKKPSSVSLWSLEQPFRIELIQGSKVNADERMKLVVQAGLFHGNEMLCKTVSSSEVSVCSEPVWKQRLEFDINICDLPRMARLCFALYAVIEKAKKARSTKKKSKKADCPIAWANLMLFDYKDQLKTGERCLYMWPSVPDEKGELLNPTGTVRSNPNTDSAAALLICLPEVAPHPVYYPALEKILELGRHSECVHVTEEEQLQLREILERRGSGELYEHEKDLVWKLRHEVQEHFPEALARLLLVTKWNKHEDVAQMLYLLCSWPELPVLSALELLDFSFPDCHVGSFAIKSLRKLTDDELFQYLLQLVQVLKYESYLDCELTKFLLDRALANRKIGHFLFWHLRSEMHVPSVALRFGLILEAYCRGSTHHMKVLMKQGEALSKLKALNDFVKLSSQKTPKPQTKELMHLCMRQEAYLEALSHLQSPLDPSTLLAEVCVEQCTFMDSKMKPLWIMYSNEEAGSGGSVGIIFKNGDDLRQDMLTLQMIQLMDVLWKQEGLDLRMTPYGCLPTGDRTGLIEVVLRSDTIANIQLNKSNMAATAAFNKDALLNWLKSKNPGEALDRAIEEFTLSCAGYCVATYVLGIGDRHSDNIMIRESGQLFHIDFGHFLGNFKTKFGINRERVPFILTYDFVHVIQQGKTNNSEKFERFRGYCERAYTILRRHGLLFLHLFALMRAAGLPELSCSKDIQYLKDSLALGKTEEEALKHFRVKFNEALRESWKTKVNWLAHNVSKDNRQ
Sequence of PI3K-δ (PI3K(p1108/p857) (h)) (P27986 whole entry partner): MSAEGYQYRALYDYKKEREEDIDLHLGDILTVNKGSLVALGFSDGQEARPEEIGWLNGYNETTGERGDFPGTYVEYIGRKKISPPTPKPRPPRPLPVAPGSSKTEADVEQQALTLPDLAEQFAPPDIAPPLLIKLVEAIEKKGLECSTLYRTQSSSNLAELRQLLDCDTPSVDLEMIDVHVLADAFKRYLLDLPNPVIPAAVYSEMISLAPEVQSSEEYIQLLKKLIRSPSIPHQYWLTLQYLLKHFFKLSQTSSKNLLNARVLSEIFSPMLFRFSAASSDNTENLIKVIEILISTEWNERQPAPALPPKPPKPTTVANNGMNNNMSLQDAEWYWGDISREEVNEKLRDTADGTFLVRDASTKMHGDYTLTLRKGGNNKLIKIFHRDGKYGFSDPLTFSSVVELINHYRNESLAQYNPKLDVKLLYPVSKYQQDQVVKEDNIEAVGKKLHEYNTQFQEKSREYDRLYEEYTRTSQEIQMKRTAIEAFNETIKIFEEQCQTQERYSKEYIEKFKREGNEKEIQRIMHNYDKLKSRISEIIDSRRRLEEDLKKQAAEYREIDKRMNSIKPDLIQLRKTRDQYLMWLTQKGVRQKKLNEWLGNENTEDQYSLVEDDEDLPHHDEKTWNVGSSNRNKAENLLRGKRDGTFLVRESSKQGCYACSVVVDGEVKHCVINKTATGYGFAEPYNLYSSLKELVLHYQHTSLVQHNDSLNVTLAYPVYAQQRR

As for `C[C@H](Nc1ncnc2[nH]ccc(=O)c12)c1c(Cl)c2cccc(-c3cc(F)ccc3Cl)c2c(=O)n1-c1ccccc1` [Example 107, (S)-4-((1-(4-chloro-8-(2-chloro-5-fluorophenyl)-1-oxo-2-phenyl-1,2-dihydroisoquinolin-3-yl)ethyl)amino)pyrido[2,3-d]pyrimidin-5(8H)-one], the values for the inhibition at 0.01 µM (in test [1]; at DNA-PK(h)) were 59% and 24%, respectively. The inhibition (commonly the relative decrease from the control value, in per cent) at 0.1 µM in test [1] (compound concentration 0.1 μM) is 91%; on DNA-PK(h) (compound concentration 0.1 μM), 54%.
Turning to `C[C@H](Nc1ncnc2[nH]ccc(=O)c12)c1cc2cccc(-c3ccc(C(N)=O)cc3)c2c(=O)n1-c1ccccc1` [Example 81, (S)-4-(1-oxo-3-(1-((5-oxo-5,8-dihydropyrido[2,3-d]pyrimidin-4-yl)amino)ethyl)-2-phenyl-1,2-dihydroisoquinolin-8-yl)benzamide], the results for the inhibition at 0.01 µM (in test [1]; at DNA-PK(h)) were 97% and 22%, respectively. The inhibition at 0.1 µM in test [1] (compound concentration 0.1 μM) was determined as 105%; at DNA-PK(h) (compound concentration 0.1 μM), 76%.
Take `CNC(=O)c1ccc(-c2cccc3c(Cl)c([C@H](C)Nc4ncnc5[nH]ccc(=O)c45)n(-c4ccccc4)c(=O)c23)cc1` [Example 167, (S)-4-(4-chloro-1-oxo-3-(1-((5-oxo-5,8-dihydropyrido[2,3-d]pyrimidin-4-yl)amino)ethyl)-2-phenyl-1,2-dihydroisoquinolin-8-yl)-N-methylbenzamide]: the inhibition at 0.01 µM in test [1] amounted to 44%; on DNA-PK(h), 81%.
The corresponding values for `COCc1ncc(-c2cccc3c(Cl)c([C@H](C)Nc4ncnc5[nH]ccc(=O)c45)n(-c4ccccc4)c(=O)c23)cn1` [Example 55, (S)-4-((1-(4-chloro-8-(2-(methoxymethyl)pyrimidin-5-yl)-1-oxo-2-phenyl-1,2-dihydroisoquinolin-3-yl)ethyl)amino)pyrido[2,3-d]pyrimidin-5(8H)-one] are 59% and 44%.
Consider `C[C@H](Nc1ncnc2[nH]ccc(=O)c12)c1c(Cl)c2cccc(Sc3ccc(F)cc3)c2c(=O)n1-c1ccccc1` [Example 398, (S)-4-((1-(4-chloro-8-((4-fluorophenyl)thio)-1-oxo-2-phenyl-1,2-dihydroisoquinolin-3-yl)ethyl)amino)pyrido[2,3-d]pyrimidin-5(8H)-one], for which the inhibition at 0.1 µM in test [1] (compound at 0.1 μM) was 7%; at DNA-PK(h) (compound at 0.1 μM) it was 3%.
The corresponding values for `C[C@H](Nc1ncnc2[nH]ccc(=O)c12)c1c(Cl)c2cccc(-c3cnc(Cl)nc3)c2c(=O)n1-c1ccccc1` [Example 402, (S)-4-((1-(4-chloro-8-(2-chloropyrimidin-5-yl)-1-oxo-2-phenyl-1,2-dihydroisoquinolin-3-yl)ethyl)amino)pyrido[2,3-d]pyrimidin-5(8H)-one] are 71% and 16%.
The corresponding values for `C[C@H](Nc1ncnc2[nH]ccc(=O)c12)c1c(Cl)c2cccc([S@@](=N)(=O)c3ncccn3)c2c(=O)n1-c1ccccc1` [Example 422, 4-(((S)-1-(4-chloro-1-oxo-2-phenyl-8-((R)-pyrimidine-2-sulfonimidoyl)-1,2-dihydroisoquinolin-3-yl)ethyl)amino)pyrido[2,3-d]pyrimidin-5(8H)-one] are 9% and 18%.
For the molecule `C[C@H](Nc1ncnc2[nH]ccc(=O)c12)c1c(Cl)c2cccc(-c3ccc(C(F)(F)F)cc3)c2c(=O)n1-c1ccccc1` [Example 68, (S)-4-((1-(4-chloro-1-oxo-2-phenyl-8-(4-(trifluoromethyl)phenyl)-1,2-dihydroisoquinolin-3-yl)ethyl)amino)pyrido[2,3-d]pyrimidin-5(8H)-one], at DNA-PK(h), the inhibition at 0.01 µM turned out to be 48%. Further, on DNA-PK(h) (compound concentration 0.1 μM), the inhibition at 0.1 µM is 73%.
